Patent publication US20200239530A1, “COMPOUNDS AND METHODS OF MODULATING PROTEIN DEGRADATION” (Vividion Therapeutics, Inc., priority 2017, published 2020)

Target: T1, FAM120A Constitutive coactivator of PPAR-gamma-like protei (Homo sapiens, UniProt Q9NZB2)
T1 construct: 200 μL of lysate containing 5 mg/ml proteome was treated with 2 μL of 100× compound stock; endogenous in cells
T1 sequence (Q9NZB2 1-1118): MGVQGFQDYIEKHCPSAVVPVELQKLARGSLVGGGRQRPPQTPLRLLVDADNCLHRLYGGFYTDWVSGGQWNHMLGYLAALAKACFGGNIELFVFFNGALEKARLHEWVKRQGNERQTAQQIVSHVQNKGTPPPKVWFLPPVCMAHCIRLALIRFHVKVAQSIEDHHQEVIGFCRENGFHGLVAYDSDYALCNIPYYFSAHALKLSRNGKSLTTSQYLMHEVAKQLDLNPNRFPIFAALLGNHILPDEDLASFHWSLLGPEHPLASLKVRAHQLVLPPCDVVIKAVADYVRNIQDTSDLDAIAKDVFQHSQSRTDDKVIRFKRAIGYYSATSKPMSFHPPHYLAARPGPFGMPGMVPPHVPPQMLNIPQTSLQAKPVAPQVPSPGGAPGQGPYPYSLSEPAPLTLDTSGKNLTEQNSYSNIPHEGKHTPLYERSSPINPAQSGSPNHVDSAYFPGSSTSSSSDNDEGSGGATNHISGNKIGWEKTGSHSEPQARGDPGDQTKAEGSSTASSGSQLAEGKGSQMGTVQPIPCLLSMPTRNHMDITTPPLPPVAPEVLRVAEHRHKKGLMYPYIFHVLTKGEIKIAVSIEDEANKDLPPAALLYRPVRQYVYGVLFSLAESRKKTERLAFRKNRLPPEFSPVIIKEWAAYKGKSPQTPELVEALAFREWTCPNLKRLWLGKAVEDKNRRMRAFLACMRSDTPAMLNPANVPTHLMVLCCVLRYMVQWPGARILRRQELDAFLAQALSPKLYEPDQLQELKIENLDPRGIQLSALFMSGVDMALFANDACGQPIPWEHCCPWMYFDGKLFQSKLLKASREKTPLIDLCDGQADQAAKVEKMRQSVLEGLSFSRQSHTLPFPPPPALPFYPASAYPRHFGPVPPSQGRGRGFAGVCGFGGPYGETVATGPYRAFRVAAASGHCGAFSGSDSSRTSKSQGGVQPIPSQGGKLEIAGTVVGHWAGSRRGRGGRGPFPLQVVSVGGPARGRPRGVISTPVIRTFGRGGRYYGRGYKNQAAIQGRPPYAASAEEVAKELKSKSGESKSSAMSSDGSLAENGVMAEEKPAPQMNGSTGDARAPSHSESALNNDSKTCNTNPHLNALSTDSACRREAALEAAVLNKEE
Experiment: Cysteine liganding, probe competition
Assay type: binding
In short: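 Probe competition in native proteome: 5 mg/ml lysate, compound 1 hr 25° C, then desthiobiotin iodoacetamide (10 mM stock) 1 hr 25° C; acetone ppt, urea/DTT reduction, iodoacetamide alkylation, trypsin, streptavidin pull-down.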

| Structure (SMILES) | Liganded (FAM120A Res# 919, uniprot Q9NZB2) | 100 ave (uniprot Q9NZB2) | 500 Max (uniprot Q9NZB2) | 500 ave (uniprot Q9NZB2) | 100 Max (uniprot Q9NZB2, in % (unit assumed)) |
| --- | --- | --- | --- | --- | --- |
| COc1ccc2c(c1)CCCN2C(=O)CCl [KB02] | YES | – | – | – | – |
| O=C(CCl)Nc1cc(C(F)(F)F)cc(C(F)(F)F)c1 [KBO3] | – | −8.925 | 55.62 | 55.62 | 13.09 |
